We go through 88 compounds from a melting point compilation (Tetko et al.; mined from patent text by program, amines drawn as free bases though some values may be those of a salt).

The term melting point denotes the temperature, or range, at which the solid turns liquid.

Compound `CC(C)N1CC2(COc3ccc(N(C)C)cc3OC2)OC1=O` (stereo not drawn) registered a melting point of 135 to 138 °C.

On to `CCS(=O)(=O)Nc1cnc(N2CCC(C(=O)O)CC2)nc1NCc1ccccc1`, for which the melting point came to 205 °C. Then `Cc1csc(N)c1S(=O)(=O)NC(=S)NC(C)C`, with 118 to 120 °C; and `Cc1cc(C#N)ccc1-c1ccc(-c2nc3cc(C#N)ccc3[nH]2)cc1`, with 269 to 270 °C.

For the compound `COC(=O)c1ccc(-c2csc(N3C(=O)OCC3(C)C)n2)cc1`, the melting point lay within 176 to 179 °C. Take `CN1C(=O)c2cccc(C(F)(F)F)c2Sc2ccccc21`: the melting point fell in the range of 139 to 141 °C. Under `O=C(NC1c2cc(NC(=O)N3CCCC3)ccc2CCC1O)c1ccc(Cl)c(Cl)c1` (stereo not drawn) stands 206 to 208 °C; under `NC(=O)c1nc(-c2cccc(O)c2)nc2c1[nH]c(=O)n2-c1cccc(F)c1`, more than 375 °C; under `CCON1CCC(C#N)(NC(=O)Cc2c(C)cc(C)cc2C)CC1`, 194 to 195 °C. Under `N#CCC(c1ccccn1)c1cc(N)cc2c1OCC2` (stereo not drawn) stands 143 to 144 °C.

`CN(C(c1ccc(F)cc1)c1ccc(Cl)cc1Cl)n1cncn1` (stereo not drawn) registered a melting point of 118 to 119 °C.

As for `Cc1cccc2c(C#N)csc12`, the melting point lay within 82 to 84 °C. Take `COCOc1cc(CCCOc2nn(Cc3ccccc3)cc2CC(=O)O)n(Cc2ccc(Cl)cc2Cl)n1`: the melting point fell in the range of 89.5 to 91.5 °C. Under `CC(=O)c1ccc(S(=O)(=O)NCc2cccnc2)cc1` stands 143 to 144 °C.

Turning to `COc1cc(/C=C/CO)ccc1OCc1nc(-c2ccco2)oc1C`, the melting point is 128 to 129 °C. `Cc1cccc(C(=O)NO)c1N(C)S(=O)(=O)c1ccc(OCCCNC(=O)c2ccc3c(c2)OCO3)cc1` had a melting point of 102 to 112 °C. Compound `O=S(=O)(NCC(O)(Cn1cncn1)c1ccc(Cl)cc1Cl)c1ccc2ccccc2c1` (stereo not drawn) returned a melting point of 179 to 180 °C. Then `CC(O)(C(=O)NCCC(F)(F)F)C(=O)NC1C(=O)N(CCO)c2ccccc2-c2ccccc21` (stereo not drawn), with 59 to 62 °C; and `CCCn1c(=O)c2nc(-c3ccc(/C=C/C(=O)O)cc3)[nH]c2n(C)c1=O`, with more than 300 °C. `CC(C)CC(NC(=O)Cc1ccc(NC(=O)Nc2ccccc2Cl)cc1)c1ncc(CCC(=O)O)s1` (stereo not drawn) gave a melting point of 173 to 175 °C. For the compound `Nc1ncnc2c1ncn2Cc1nc2ccc(Cl)cc2c(=O)n1-c1ccccc1Cl`, the melting point is 294 to 295 °C.

`CCOC(=O)Nc1ccc(C(=O)OC)cc1`: the melting point was in the range of 159 to 162 °C. Compound `CC(C)COc1ccc(-n2ncc(C(=O)O)c2Cl)cc1C#N` gave a melting point of 216 to 218 °C.

Compound `CC1(CC2CCCC2)Cc2cc(O)c(Cl)c(Cl)c2C1=O` (stereo not drawn) registered a melting point of 188 to 190 °C. Turning to `CC1(C)CCC(C)(C)c2cc(N)c(N)cc21`, the melting point came to 185 °C. In turn, `CC(C)Oc1nccc(-c2c(-c3ccc(F)cc3)ncn2C2CCC(O)CC2)n1` (stereo not drawn) came in with a melting point of 208 to 211 °C. For the compound `CC(C)(Oc1cccc(OCCCc2cn(-c3ccc(C(F)(F)F)cn3)nc2-c2ccccc2)c1)C(=O)O`, the melting point lay in the range of 141 to 142 °C. Under `OC(c1ccc(F)cc1)(c1ccc(F)cc1)C1CCNCC1` stands 160 °C; under `N#CC=C(N)c1ccccc1C(F)(F)F`, 101 to 103 °C; under `O=C(O)COc1cc2onc(-c3ccccc3F)c2cc1Cl`, 214 to 215 °C. As for `CCCCN1CCc2c(C)nc3ncnn3c21`, the melting point lay within 72 to 75 °C. Turning to `O=C1CC(c2ccc(Cl)cc2Cl)Oc2ccccc21` (stereo not drawn), the melting point fell in the range of 91 to 92 °C. Under `CCOc1ccc(Oc2ccc(OCc3ccccc3)cc2)c([N+](=O)[O-])c1` stands 96 to 96.5 °C; under `O=C1NCN(c2ccccc2)C12CCN(CC1CCc3ccccc3O1)CC2` (stereo not drawn), 192 to 194 °C. Then `COc1ccc2c(c1)C=C(C(O)C(F)(F)F)CC2` (stereo not drawn), with 66 to 68 °C; and `CC(=O)NCCCc1c[nH]c(-c2ccc(F)cc2)c1-c1ccncc1`, with 218 to 220 °C; and `CCCCn1cc(S(C)=O)c(=O)c2ccccc21` (stereo not drawn), with 103 to 105 °C.

As for `COC(=O)C(C)c1ccc2c(c1)CC(=O)c1ccccc1S2` (stereo not drawn), the melting point fell in the range of 81 to 82 °C. Then `CN(CCCc1cc(F)c2ncc(C(=O)NCc3ccc(Cl)cc3)c(O)c2c1)Cc1ccccc1`, with 161 to 162 °C; and `CN(C1CCN(CC(C)(C)O)CC1)S(=O)(=O)c1ccc(Nc2nccc(Nc3ccc(F)cc3)n2)cc1`, with 216 to 217 °C; and `O=c1[nH]c(N2CCOCC2)nc2c1CC(S(=O)(=O)c1ccccc1)CC2` (stereo not drawn), with more than 250 °C. Under `COC(=O)c1ccc(C(CCN(C)C)c2ncc[nH]2)cc1` (stereo not drawn) stands 102 to 104 °C; under `Cc1oc(-c2cccs2)nc1COc1ccc(CON=C(CCCCCCC(=O)O)c2ccccc2)cc1`, 106 to 108 °C; under `CN(C)Cc1c[nH]c2ccc(Cl)cc12`, 127 to 130 °C.

`O=C1NC(=O)c2cc(Nc3ccc(OCc4ccccc4)cc3)c(Nc3ccc(OCc4ccccc4)cc3)cc21` registered a melting point of 187 to 189 °C. Under `Cc1c(C(=O)O)cc(O)c2cc(-c3ccc4c(c3)C(C)(C)CCC4(C)C)ccc12` stands 266 °C; under `Cn1c(-c2ccc(O)cc2)cc2ccc(O)cc21`, 200 to 204 °C.

On to `CCCc1cc2ccccn2c1C(=O)c1ccc(O)c(Cl)c1`, for which the melting point came out at 165 °C. Under `Cc1ccccc1-c1ccc(C(=O)N2Cc3ccc(C(=O)NCc4cccc(N)c4)n3Cc3ccccc32)cc1C` stands 105 to 115 °C; under `COc1ccccc1N1CCN(CCCCCS(=O)(=O)c2cccc3c(=O)c(C)c(-c4ccccc4)oc23)CC1`, 120 to 123 °C; under `CC(C)(CC(O)(Cn1cc(Cl)c(=O)c2sccc21)C(F)(F)F)c1cc(-c2cncnc2)cc2c1OCC2` (stereo not drawn), 218 to 219 °C. Then `CCCOc1ccc(Cl)cc1C1=NC(=O)C2=NC=NC2=N1`, with 277 to 279 °C. Under `C=CCN(CC=C)c1nc(Cl)nc2c(SC)ncnc12` stands 83 to 84 °C; under `Cc1nn(CC(F)(F)COC(=O)N(C)C)c(-c2ccc(F)cc2)c1-c1ccc2c(c1)NC(=O)CO2`, 146 °C. `Cc1cc(Cl)cc(NC(=O)Cc2ccc(OC3(C(=O)O)CCC(C)C3)cc2)c1` (stereo not drawn) showed a melting point of 164 to 166 °C. Regarding `CC(C)Nc1c(-c2c(F)cc(F)cc2F)c(F)nc2nccnc12`, the melting point was 127 to 128 °C. Then `O=C(Nc1cccc(Cl)c1)ONC1C=NC(c2ccccc2Cl)=c2cc(Cl)ccc2=N1` (stereo not drawn), with 125 to 137 °C; and `COc1ccnc(C(=O)c2[nH]c3cc(Cl)ccc3c2NC(=O)N(C)OC)c1`, with 184 to 185 °C; and `CCOC(=O)C1=C(C)NC2=C(C(=O)OC2)C1c1cccc2ncc(-c3ccccc3)cc12` (stereo not drawn), with 257 to 260 °C.

`OC(CS)(Cn1cncn1)c1ccc(Cl)cc1Cl` (stereo not drawn) returned a melting point of 139 to 142 °C. `Cc1nc(-c2cc(C)c(OCCCc3cccnc3)c(C)c2)no1`: the melting point fell in the range of 46 to 49 °C. Then `O=C(NC1CCC(c2cc(Nc3cccc(C(F)(F)F)c3)n[nH]2)C1)C1CCCCC1` (stereo not drawn), with 163 °C; and `O=C(O)c1cc(C(=O)O)c(C(O)=NCCO)cc1C(O)=NCCO`, with 280 to 281 °C. Then `O=C(NC1CC(=O)c2ccccc2C1)OCc1ccccc1` (stereo not drawn), with 79.5 to 81.5 °C; and `CC(C)OC(=O)C(C(=O)O)=C1SCS1`, with 123 to 124 °C. Then `O=c1ncccn1Cc1ccc2ccccc2c1`, with 136 to 145 °C; and `CCCCc1nc2c(C(F)(F)F)cccc2c(O)c1C(=O)OCC`, with 68 to 69 °C.

In the case of `CN(C(CCn1c(=O)cc(Cl)n(C)c1=O)C(=O)NO)S(=O)(=O)c1ccc(Oc2ccccc2)cc1` (stereo not drawn), the melting point lay within 90 to 93 °C. Regarding `CCNS(=O)(=O)c1cc(C)c2cc(C(C)C)ccc(C)c1-2`, the melting point lay within 96 to 98 °C. Then `O=C(O)[C@H](Cc1ccccc1)NC(=O)N1CCOCC1`, with 57 to 60 °C. On to `CCC(CC)Nc1c(Br)c(CBr)nc2c1nnn2-c1c(C)cc(C)cc1C`, for which the melting point was in the range of 115 to 117 °C. Under `CSC(C)(C)C(NS(=O)(=O)c1ccc(Oc2ccccc2)cc1)C(=O)O` (stereo not drawn) stands 156 to 158 °C. On to `Cc1nnsc1C(=O)NS(=O)(=O)c1ccc(Cl)cc1`, for which the melting point is 165 °C.

Compound `Cc1nc2c3c(c(C(=O)N4CCC(O)C4)cc2n1C)CCC(c1ccccc1)O3` (stereo not drawn) returned a melting point of 322 to 324 °C. Then `NNC(=O)c1cccc(-c2csc(N=C(N)N)n2)n1`, with 233 to 234 °C; and `Cc1cc(Nc2ccc(Cl)cc2)nc(-n2ncc3ccccc32)n1`, with 167 to 169 °C. Consider `CC1Oc2c(Cc3ccccc3)cc(C=O)cc2NC1=O` (stereo not drawn), for which the melting point was in the range of 163 to 166 °C. As to `CCn1c(C)nc(N2CCc3ccccc3CC2)c(C#N)c1=O`, the melting point lay in the range of 154 to 158 °C. Under `CCCC1=C(C(=O)OCC)C(c2ccccc2OC)c2c[nH]nc2N1` (stereo not drawn) stands 169 °C; under `O=c1[nH]c2cc(Cl)ccc2c(O)c1-c1ccc(F)cc1`, 335 to 337 °C. Under `NC(=O)C(CCCCCc1ccc(Cl)cc1)C(=O)O` (stereo not drawn) stands 125 to 126 °C; under `CC(=O)OCCNC(=O)Nc1ccc2c(c1)C(c1ccccc1F)=NCC(=O)N2C`, 196 to 198 °C; under `COC(=O)/C=C/c1c(OC)cccc1OC`, 76 to 78 °C. Then `CCC(=O)N(Cc1cccc(-c2ccccc2)c1)c1cccc(-c2nnn[nH]2)c1`, with 91 °C. With `O=S(=O)(Cl)c1ccc(Oc2ccc(Br)cc2)cc1`, the melting point was found to be 80.9 °C. As to `COc1ccc2c(c1)OCC21C(=O)N(Cc2cccnc2)c2ccccc21` (stereo not drawn), the melting point lay in the range of 164 to 165 °C. Then `COc1ccc(C=Cc2nc3c(OC)c(C)c(C)c(OC)c3[nH]2)cc1OC`, with 116 to 119 °C; and `Cc1cccc(C)c1OCC(=O)NC(Cc1ccccc1)C(O)CC(N)Cc1ccccc1` (stereo not drawn), with 131 °C.
